Measured values published in patent publication US10206944B2, “Chondroitin for use in medicine” (ALTERGON S.A., priority 2012, dated 2019).

Columns and labels:
[1] = system: Sox9; assay: Real-Time PCR gene expression in human chondrocytes: Sox9; format: cell-based; settings: 1% w/v, ratio to untreated control
Method: To evaluate the biological effects of chondroitin on human chondrocyte cultures, the expression of a set of genes considered key to establishing the phenotype, and suitable markers for evaluating the quality of the tissue generated, was determined. The study was conducted on chondrocytes prepared from human cartilage, as reported in Example 2, the cells being grown in the presence of chondroitin or chondroitin sulphate. Using a standard procedure, 5*10^4 cells per well were seeded in a 24-well multiwell plate. The chondrocytes were grown in DMEM containing 1% w/v of chondroitin or chondroitin sulphate (endotoxin content ≤0.1 EU/mg). The cells were stimulated for 4, 7 and 10 days (Ishak et al., International J. of Pediatric Otorhinolaryngology, 2011, 75: 835-840), after which the RNA was extracted with Trizol Reagent, as described in the kit manual (Life Technologies Ltd, Milan, Italy). A qualitative morphological analysis of the cell culture was also conducted at the various times, in parallel with RNA extraction, by observing the corresponding samples at 4, 7 and 10 days under the optical microscope. The cells seeded at the three different times were observed under the microscope, and the images that best represented the cell growth conditions were acquired using a time-lapse videomicroscopy workstation. After RNA extraction, reverse transcription was performed with a total of 1 μg RNA and then with amplification by Real-Time PCR of genes which are specific markers for chondrocytes (Table 3).
Genes connected with matrix production, such as aggrecan, type I collagen, type II collagen and the Sox9 gene, the expression of which is closely correlated with the expression of type II collagen, were analysed as specific markers for differentiation and characterisation of chondrocytes. (Akiyama H., Mod Rheumatol., 2008, 18(3): 213-9; Yang et al., J. of Orthopaedic Res. 2011).
The gene expression of said markers on human chondrocytes cultured in basic medium (control) and with chondroitin treatment (C) or chondroitin sulphate treatment (CS) was analysed on cell cultures in the second and third growth phases.
The results of the gene expression analysis were reported as the average of at least 3 independent experiments for tests conducted in the presence of C or CS, on cells in phases 2 and 3.

[2] = system: mini-pig dorsal wounds; assay: Wound repair in the mini-pig, topical treatment; format: in vivo; design: key to d) Histological evaluation of biopsies after 4 weeks / e) Histological evaluation of biopsies after 6 weeks: collagen organisation 1-3; 3 = best healing, 1 = parallel bundles; settings: for a) Evaluation of wound quality after 4 weeks: 2.5 mL twice a day, 5 excellent; for a) Evaluation of wound quality after 4 weeks / b) Evaluation of wound quality after 6 weeks: 5-point scale; for d) Histological evaluation of biopsies after 4 weeks / e) Histological evaluation of biopsies after 6 weeks: collagen organisation, 3-point scale; for c) Histopathological evaluation after 6 weeks: scale of 1 to 3, 3 optimum healing
From the text: The mini-pig (an animal weighing 25-28 Kg), a model whose validity for wound-repair studies is widely recognised, was used as experimental model to evaluate the ability of chondroitin to accelerate the repair process of damaged skin tissue. Operating under general anaesthetic from the back of the animals, the hair was shaved and the shaven area was washed thoroughly with a 10% solution of iodine-polyvinylpyrrolidone complex and then with isopropyl alcohol. 12 elliptical wounds, six on each side, 20 mm long and 6 mm wide, were made on the shaven, disinfected backs of the animals. The wounds penetrated as far as the subcutaneous fat, about 4 cm from the median line of the back, with the longer side of the wound parallel to the spinal line. The incisions were then sewn with two stitches to close the dermal plane. The superficial stitches were removed after about 7 days. The wounds were covered with a non-adhesive dressing secured with sticking plaster, and the body of the animals was protected with an elastic bandage. Eight animals were selected and divided into two groups of 4, treated topically with chondroitin (first group) or chondroitin sulphate (second group), as described in the protocol shown in Table 11. Starting from the head of the animal, the first two wounds on both sides were treated with the carrier alone, consisting of 2.5 mL of saline, the second two on both sides were treated with 2.5 mL of a 30 mg/mL solution of chondroitin in saline (first group) or with 2.5 mL of a 30 mg/mL solution of chondroitin sulphate in saline (second group), and the third two on both sides were treated with 2.5 mL of a 60 mg/mL solution of chondroitin in saline (first group) or 2.5 mL of a 60 mg/mL solution of chondroitin sulphate in saline (second group). The treatment was performed by slowly dripping the solution into the wound twice a day and dabbing with a gauze dressing, which was then used to cover the wound so that the active ingredient remained in situ for longer. The study continued for 6 weeks, after which the animals were euthanized. A biopsy of about 4 mm was taken after 4 weeks, while the entire areas of the 12 dorsal wounds were removed from the euthanized animals for histological tests. The following evaluations were performed on the treated animals:
a) an evaluation after 4 and 6 weeks by 4 dermatologists who independently assessed the quality of the wound (colour, texture, edges, distortion) and the appearance of the surrounding tissue on a 5-point scale;
b) a pathological evaluation on a scale of 1 to 3 conducted by two veterinary surgeons on the tissue removed after the animals were euthanized, to evaluate the presence of abnormal histopathological situations (quantity of granulation tissue and inflammatory response, with a score from 3 for optimum healing to 1 for ongoing inflammatory symptoms and abundant granulation tissue);
c) a histological analysis of the 4-week biopsies and the tissue removed after the animals were euthanized, conducted by two histologists operating independently, who evaluated the organisation of the collagen on a 3-point scale. An organisation of the collagen fibres similar to the normal model, but smaller than normal dermis (the best healing), scored 3 points, an intermediate arrangement of the fibre weave scored 2 points, and several fibres arranged in parallel bundles or on a plane scored 1 point.

Substance	Fold Expression, Sox9 ([1]; phase II, 4 g)	Fold Expression, Sox9 ([1]; phase II, 7 g)	Fold Expression, Sox9 ([1]; phase II, 10 g)	Fold Expression, Sox9 ([1]; phase III, 4 g)	Fold Expression, Sox9 ([1]; phase III, 7 g)	Fold Expression, Sox9 ([1]; phase III, 10 g)	a) Evaluation of wound quality after 4 weeks ([2]; 30 mg/mL)	b) Evaluation of wound quality after 6 weeks ([2]; 30 mg/mL)	d) Histological evaluation of biopsies after 4 weeks ([2]; 30 mg/mL)	e) Histological evaluation of biopsies after 6 weeks ([2]; 30 mg/mL)	c) Histopathological evaluation after 6 weeks ([2]; 30 mg/mL)	a) Evaluation of wound quality after 4 weeks ([2]; 60 mg/mL)	b) Evaluation of wound quality after 6 weeks ([2]; 60 mg/mL)	d) Histological evaluation of biopsies after 4 weeks ([2]; 60 mg/mL)	e) Histological evaluation of biopsies after 6 weeks ([2]; 60 mg/mL)	c) Histopathological evaluation after 6 weeks ([2]; 60 mg/mL)
chondroitin	1.87 ± 0.85	1.16 ± 0.15	1.78 ± 0.75	3.68 ± 0.44	1.09 ± 0.01	0.53 ± 0.02	3.8 ± 0.4	4.5 ± 0.3	2.3 ± 0.2	2.7 ± 0.1	2.3 ± 0.1	4.1 ± 0.3	4.9 ± 0.1	2.7 ± 0.1	3.0 ± 0.2	3.0 ± 0.2
chondroitin sulphate [CS, reference compound]	2.2 ± 1.20	0.86 ± 0.31	0.53 ± 0.02	2.6 ± 1.21	1.41 ± 0.04	0.81 ± 0.05	2.6 ± 0.2	3.4 ± 0.3	1.3 ± 0.1	1.7 ± 0.2	1.7 ± 0.2	2.9 ± 0.2	3.7 ± 0.3	1.3 ± 0.1	1.7 ± 0.1	2.3 ± 0.2
